Measurements from article PMC11406360, “The enzymatic oxygen sensor cysteamine dioxygenase binds its protein substrates through their N-termini” (The Journal of Biological Chemistry, 2024).
Where a SMILES comes first, the peptide text is derived from it.

T1: ADO (2-aminoethanethiol dioxygenase), iron-bound wild type (Homo sapiens, UniProt Q96SZ5)
T1 construct: Full-length human ADO (UniProt ID: Q96SZ5) was cloned; made in house; host or cells: Rosetta2(DE3) Escherichia coli
T1 sequence (Q96SZ5 1-270): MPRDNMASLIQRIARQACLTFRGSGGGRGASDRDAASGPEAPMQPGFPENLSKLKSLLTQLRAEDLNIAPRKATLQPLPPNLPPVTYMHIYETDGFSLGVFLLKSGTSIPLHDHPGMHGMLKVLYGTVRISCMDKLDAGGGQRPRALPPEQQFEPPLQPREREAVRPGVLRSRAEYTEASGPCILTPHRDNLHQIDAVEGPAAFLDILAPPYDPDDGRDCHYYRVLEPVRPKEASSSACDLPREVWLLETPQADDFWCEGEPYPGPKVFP

T2: ADO-Zn^2+ (Homo sapiens, UniProt Q96SZ5)
T2 construct: Full-length human ADO (UniProt ID: Q96SZ5) was cloned; made in house; host or cells: Rosetta2(DE3) Escherichia coli, M9 minimal media with 0.2 mM Co2+ or Zn2+
T2 sequence (Q96SZ5 1-270): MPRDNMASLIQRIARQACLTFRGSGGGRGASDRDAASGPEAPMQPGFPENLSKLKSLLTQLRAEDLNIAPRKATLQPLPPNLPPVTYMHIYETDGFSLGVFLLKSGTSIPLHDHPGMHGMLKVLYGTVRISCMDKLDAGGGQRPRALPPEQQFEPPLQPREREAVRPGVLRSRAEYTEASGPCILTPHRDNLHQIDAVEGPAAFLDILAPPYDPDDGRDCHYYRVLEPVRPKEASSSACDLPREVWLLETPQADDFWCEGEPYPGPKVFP

T3: ADO-Co^2+ (Homo sapiens, UniProt Q96SZ5)
T3 construct: Full-length human ADO (UniProt ID: Q96SZ5) was cloned; made in house; host or cells: Rosetta2(DE3) Escherichia coli, M9 minimal media with 0.2 mM Co2+ or Zn2+
T3 sequence (Q96SZ5 1-270): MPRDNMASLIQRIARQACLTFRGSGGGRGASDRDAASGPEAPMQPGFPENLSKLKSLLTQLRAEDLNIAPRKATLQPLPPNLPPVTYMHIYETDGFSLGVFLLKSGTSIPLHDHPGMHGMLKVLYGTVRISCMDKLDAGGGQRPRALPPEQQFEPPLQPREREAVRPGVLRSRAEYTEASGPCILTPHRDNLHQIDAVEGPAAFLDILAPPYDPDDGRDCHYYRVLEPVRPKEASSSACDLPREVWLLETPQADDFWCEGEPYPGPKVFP

T4: ADO-H193D (Homo sapiens, UniProt Q96SZ5, H193D)
T4 construct: Full-length human ADO (UniProt ID: Q96SZ5) was cloned; made in house; host or cells: Rosetta2(DE3) Escherichia coli
T4 sequence (Q96SZ5 1-270 H193D): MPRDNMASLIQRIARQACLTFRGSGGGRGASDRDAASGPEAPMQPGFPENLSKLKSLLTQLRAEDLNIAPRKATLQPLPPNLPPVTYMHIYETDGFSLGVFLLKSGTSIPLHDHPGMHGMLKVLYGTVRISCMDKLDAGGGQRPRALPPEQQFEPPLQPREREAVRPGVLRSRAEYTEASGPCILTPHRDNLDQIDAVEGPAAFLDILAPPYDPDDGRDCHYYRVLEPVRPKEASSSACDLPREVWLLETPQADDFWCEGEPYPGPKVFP

T5: ADO (Homo sapiens, UniProt Q96SZ5)
T5 construct: Full-length human ADO (UniProt ID: Q96SZ5) was cloned; made in house; host or cells: Rosetta2(DE3) Escherichia coli
T5 sequence (Q96SZ5 1-270): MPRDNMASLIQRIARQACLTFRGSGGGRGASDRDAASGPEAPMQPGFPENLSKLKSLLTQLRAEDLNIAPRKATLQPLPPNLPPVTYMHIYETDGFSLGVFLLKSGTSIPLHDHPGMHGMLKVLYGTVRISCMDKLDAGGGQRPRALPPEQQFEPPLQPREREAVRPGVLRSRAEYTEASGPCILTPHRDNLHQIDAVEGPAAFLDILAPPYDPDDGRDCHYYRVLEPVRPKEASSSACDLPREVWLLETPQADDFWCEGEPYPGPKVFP


Tests used:
[1] = target: T1, ADO (2-aminoethanethiol dioxygenase), iron-bound wild type; assay: SPR binding of peptide/protein substrates to immobilised ADO; settings: for Kd: SPR steady state, 1:1 binding model, biotinylated ADO on Biotin CAP chip, 4 °C, 20 mM Hepes pH 7.5, 500 mM NaCl, 10 mM DTT, 0.1% tween-20, geometric mean (± SD) of minimum three independent measurements, read-out: Equilibrium dissociation constant KD
Description: ADO catalyzes the O2-dependent sulfinylation of Nt-cys residues, which reportedly bind to the iron cofactor in a monodentate arrangement through ligation of the thiol group ([14], [15]). To test the importance of Nt-cys modifications and substitutions on ADO association, a SPR assay was established. […] Data collected under steady state conditions is presented in the main text and kinetic constants are provided in the Tables S1–S8 (alongside steady state measurements). All measurements were collected at 4 °C to minimize enzyme activity.
(§1) SPR measurements were made using a Biacore T200 (Cytiva) instrument and data were analyzed using the Biacore Insight Evaluation Software (Cytiva; https://www.cytivalifesciences.com/en/us/shop/protein-analysis/spr-label-free-analysis/spr-software-and-extensions/biacore-insight-evaluation-software-p-23528). Biotinylated-ADO was immobilized on a Biotin CAP chip (Cytiva) with a target density of ∼2500 to 3000 RU and peptide/protein substrates were injected over the chip. […] A buffer comprising 20 mM Hepes pH 7.5, 500 mM NaCl, 10 mM DTT, and 0.1% (v/v) tween-20 was used as the running buffer at a flow rate of 50 μl/min.
For metal-chelation experiments, a mixture of 10 mM 1, 10-phenanthroline and 100 mM EDTA (pH 8) was injected onto the chip using 10 × 60 s injections at a 100 μl/min flow rate. […] The instrument and chip were primed into buffer excluding reducing agents before conducting metal chelation and iron reconstitution.

ADO-Zn^2+ [2] = target: T2, ADO-Zn^2+; assay: SPR binding to zinc-substituted ADO; settings: SPR steady state, 1:1 model, 4 °C; geometric mean of minimum three independent measurements
Description: (§2) To study if different metals can compensate for the inherent iron cofactor, zinc (Zn^2+) and cobalt (Co^2+) substituted ADO was produced through minimal media expression, validated by ICP-MS, and analyzed for binding by SPR (Fig. 2E).
as §1

ADO-Zn^2+ [3] = target: T2, ADO-Zn^2+; assay: LC-MS turnover time course with zinc-substituted ADO; type: biochemical; settings: 100 μM peptide, 0.1 μM enzyme, 37 °C, attributed to residual iron bound ADO
Description: (§3) The catalytic functionality of the metal substituted ADO proteins was subsequently assessed by LC-MS using RGS5 peptide as a representative protein substrate. […] However, product formation was observed following long incubation times (≥30 min), with ∼80% conversion detected overnight, which is likely attributed to the activity of residual iron bound ADO (Fig. 2, E and H). Together, these findings indicate that different transition metals can substitute iron to facilitate protein substrate binding but not catalysis.
(§4) The enzymatic activity of ADO was examined by incubating between 0 to 1000 μM peptide and protein substrates with 0.05 to 0.1 μM ADO in a bench-top thermomixer at 37 °C for 45 s. Otherwise stated, the reaction buffer contained 50 mM Tris pH 7.5, 50 mM NaCl, and 5 mM TCEP. […]
(§5) Peptide and protein samples were injected onto a Chromolith RP-18 Endcapped HPLC Columns (100–2 mm; Merck) and Discovery BIO Wide Pore C5 HPLC Column (Supelco), respectively, heated to 40 °C and eluted at 0.3 ml/min using a gradient of 95% deionized water supplemented with 0.1% (v/v) formic acid to 95% acetonitrile. Oxidation was monitored by an ultra high-performance liquid chromatography MS using ExionLC AD (Sciex) and SelexION (Sciex) mass spectrometer operated in a positive electrospray TOF (+ESI-TOF) mode. […]

ADO-Co^2+ [4] = target: T3, ADO-Co^2+; assay: LC-MS turnover time course with cobalt-substituted ADO; type: biochemical; settings: 100 μM peptide, 0.1 μM enzyme, 37 °C, attributed to residual iron bound ADO
Description: as §3, §4, §5

ADO-H193D [5] = target: T4, ADO-H193D; assay: SPR binding to metal-deficient ADO-H193D mutant; settings: 4 °C
Description: To further validate the importance of metal coordination in protein substrate binding, an ADO-H193D mutant, which is known to impair iron retention, was generated (Fig. S1B). A significant reduction in metal occupancy was confirmed by ICP-MS (Fig. 2C). This correlated with a low SPR-binding response of approximately ∼2 to 3 RU, indicating a reduced population of substrate-binding ADO on the chip relative to the total amount of immobilized ADO (Figs. 2D and S5D). Furthermore, the calculated Kᴅ values with native RGS5 and IL32 peptides were ∼13-fold and ∼77-fold weaker, respectively, than the interactions with WT ADO (Table S3).
as §1

ADO-Co^2+ [6] = target: T3, ADO-Co^2+; assay: SPR binding (single cycle kinetics) to cobalt-substituted ADO; settings: 4 °C, significantly slower off-rate
Description: as §2, §1

ADO [7] = target: T5, ADO; assay: LC-MS enzyme activity assay (Nt-cys sulfinylation by ADO); type: biochemical; settings: 100 μM peptide, 0.1 μM ADO, 37 °C, 45 s and 1 h incubations
Description: […] Otherwise stated, the reaction buffer contained 50 mM Tris pH 7.5, 50 mM NaCl, and 5 mM TCEP. The reactions were quenched by mixing the sample 1:10 (peptide) or 1:5 (protein) with 1% formic acid (v/v).
Peptide and protein samples were injected onto a Chromolith RP-18 Endcapped HPLC Columns (100–2 mm; Merck) and Discovery BIO Wide Pore C5 HPLC Column (Supelco), respectively, heated to 40 °C and eluted at 0.3 ml/min using a gradient of 95% deionized water supplemented with 0.1% (v/v) formic acid to 95% acetonitrile. Oxidation was monitored by an ultra high-performance liquid chromatography MS using ExionLC AD (Sciex) and SelexION (Sciex) mass spectrometer operated in a positive electrospray TOF (+ESI-TOF) mode. Instrument parameters, data acquisition and data processing were controlled by Analyst software (Sciex; https://sciex.com/products/software/analyst-software). The peptide data processing was performed using Skyline software (MacCoss Lab Software; https://skyline.ms/project/home/software/Skyline/begin.view) ([38]). All figures and parameters were generated using GraphPad Prism 9 (GraphPad; https://www.graphpad.com/features).

ADO [8] = target: T5, ADO; assay: 15N-HSQC NMR titration with ADO; type: binding; settings: 50 μM 15N-labelled protein, 20 mM Hepes pH 7.5, 150 mM NaCl, 10 mM DTT, ADO up to 800 μM
Description: (§6) For titrations with ADO, ^15N-labeled RGS5^FL proteins were prepared at 50 μM, in buffer containing 20 mM Hepes pH 7.5, 150 mM NaCl, 10 mM DTT, and 10% (v/v) D2O. ^15N-HSQC spectra were collected before and after the addition of ADO to the labeled RGS5^FL samples. Intensity-based CSP plots were produced by calculating peak height values from the ^15N-HSQCs before and after addition of ADO and normalizing against the heights of ∼5 peaks from the HSQC that remained invariant throughout the titration.

ADO-H193D [9] = target: T4, ADO-H193D; assay: 15N-HSQC NMR titration with ADO-H193D; type: binding; settings: 50 μM 15N-labelled protein, 150 μM ADO-H193D
Description: as §6

Kd [1] [nM]	Kd (ADO-Zn^2+ [2]) [nM]	Conversion by ADO-Zn^2+ overnight (ADO-Zn^2+ [3]) [%]	Conversion by ADO-Co^2+ overnight (ADO-Co^2+ [4]) [%]	Maximum response (Rmax) ([1]; SPR, ADO prior to chelation treatment) [RU]	Loss in Rmax following chelation of the immobilized ADO-bound metal ([1]; SPR, after 10 mM 1,10-phenanthroline and 100 mM EDTA) [%]	Fold weaker KD with ADO-H193D than with WT ADO (ADO-H193D [5]) [fold]	Fold increase in binding affinity with ADO-Co^2+ relative to native ADO (ADO-Co^2+ [6]) [fold]	Oxidation (sulfinylation, +32 Da) by ADO (ADO [7])	15N-HSQC interaction on titration of ADO-H193D (ADO-H193D [9])	Molecule	15N-HSQC chemical shift perturbations on titration of ADO (ADO [8])
290 ± 45	250 ± 370	~80	~80							CC(C)C[C@H](NC(=O)CNC(=O)[C@H](CCCCN)NC(=O)[C@@H](N)CS)C(=O)N[C@@H](C)C(=O)N[C@@H](C)C(=O)N[C@@H](CC(C)C)C(=O)N1CCC[C@H]1C(=O)N[C@@H](Cc1c[nH]cn1)C(=O)N[C@@H](CO)C(=O)N[C@@H](CS)C(=O)N[C@@H](CC(C)C)C(=O)N[C@@H](CCC(=O)O)C(=O)N[C@@H](CCCNC(=N)N)C(N)=O [RGS5] (H-CKGLAALPHSCLER-NH2)	
270 ± 5				~20	~80	~77	~10	could be oxidized by ADO		H-CFPKVLSDDMKKLK-NH2 (C-terminus assumed) [IL32]	
									no interaction was observed	RGS5^FL-C2S: full-length RGS5 C2S mutant (protein, left off: His tag, N-terminal, cleaved | SUMO, N-terminal, cleaved, full-length RGS5 C2S mutant) MSKGLAALPHSCLERAKEIKIKLGILLQKPDSVGDLVIPYNEKPEKPAKTQKTSLDEALQWRDSLDKLLQNNYGLASFKSFLKSEFSEENLEFWIACEDYKKIKSPAKMAEKAKQIYEEFIQTEAPKEVNIDHFTKDITMKNLVEPSLSSFDMAQKRIHALMEKDSLPRFVRSEFYQELIK	induced CSPs in the portion of the ^15N-HSQC corresponding to the disordered N terminus of RGS5
